From patent publication US20260092074A1, “Annelated Pyridines as Steroidogenesis Inhibitors, Preparation Method and Use Thereof” (Guangzhou Vinnocent Pharmaceutical Limited, priority 2022, published 2026)

Legend:
human CYP11B1 = target: T1, human CYP11B1 (Homo sapiens, UniProt P15538); assay: Inhibition of hCYP11B1 in transfected V79 cells; type: cell-based; conditions: hamster V79 cells expressing human CYP11B1; substrate 11-deoxycortisol 200 nM
T1 construct: expressed in transfected cells
T1 sequence (P15538 25-503): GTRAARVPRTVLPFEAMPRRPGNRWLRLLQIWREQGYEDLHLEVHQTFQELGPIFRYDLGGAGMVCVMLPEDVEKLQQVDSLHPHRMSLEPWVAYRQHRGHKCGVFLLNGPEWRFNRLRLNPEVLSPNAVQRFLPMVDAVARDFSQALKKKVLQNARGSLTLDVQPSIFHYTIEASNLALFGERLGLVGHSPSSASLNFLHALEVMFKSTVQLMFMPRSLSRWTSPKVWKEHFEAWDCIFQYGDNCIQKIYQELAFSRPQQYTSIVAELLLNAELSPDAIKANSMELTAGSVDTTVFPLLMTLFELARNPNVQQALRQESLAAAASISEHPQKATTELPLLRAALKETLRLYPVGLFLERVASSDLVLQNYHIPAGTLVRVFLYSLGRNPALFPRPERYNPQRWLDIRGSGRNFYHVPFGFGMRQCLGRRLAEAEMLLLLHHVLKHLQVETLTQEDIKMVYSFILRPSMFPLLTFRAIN
How it was run: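 V79 hamster cells stably expressing human CYP11B1 and rat NADPH-P450 reductase were preincubated with compounds for 2 h. 11-Deoxycortisol (200 nM) was then added as substrate for 30 min before ethyl acetate quench. Substrate and product were quantified by LC-MS/MS or HPLC at 260 nm, and IC50 was derived from percent inhibition.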

human CYP11B2 = target: T2, human CYP11B2 (Homo sapiens, UniProt P19099); assay: Inhibition of hCYP11B2 in transfected V79 cells; type: cell-based; conditions: hamster V79 cells expressing human CYP11B2; substrate 11-deoxycorticosterone 200 nM
T2 construct: expressed in transfected cells
T2 sequence (P19099 25-503): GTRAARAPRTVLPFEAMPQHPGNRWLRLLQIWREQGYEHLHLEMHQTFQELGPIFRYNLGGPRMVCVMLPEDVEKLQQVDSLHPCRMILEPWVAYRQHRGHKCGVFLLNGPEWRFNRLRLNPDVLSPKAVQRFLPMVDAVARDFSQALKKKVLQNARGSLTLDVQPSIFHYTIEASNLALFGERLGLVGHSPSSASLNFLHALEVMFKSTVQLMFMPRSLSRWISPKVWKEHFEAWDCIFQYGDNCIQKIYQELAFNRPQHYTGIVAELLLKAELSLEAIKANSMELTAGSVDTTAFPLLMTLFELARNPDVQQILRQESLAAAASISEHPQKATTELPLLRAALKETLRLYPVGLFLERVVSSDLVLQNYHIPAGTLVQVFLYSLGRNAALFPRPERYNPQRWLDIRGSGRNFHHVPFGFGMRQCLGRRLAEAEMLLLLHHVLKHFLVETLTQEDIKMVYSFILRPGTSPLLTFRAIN
How it was run: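 Hamster V79 cells stably co-expressing human CYP11B2 and rat NADPH-P450 reductase were pre-incubated with compounds for 2 hours, then given 200 nM 11-deoxycorticosterone for 30 minutes before ethyl acetate quench. Substrate and product were quantified by LC-MS/MS or HPLC at 260 nm, and IC50 was derived from percent inhibition.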

IC50 (human CYP11B1) [nM] | IC50 (human CYP11B2) [nM] | SMILES
22 | 0.8 | N#Cc1ccc(-c2cncc3c2SCCN3S(=O)(=O)C2CN(C(=O)c3ccc(F)cc3)C2)cc1 [S68, 4-(4-((1-(4-Fluorobenzoyl)azetidin-3-yl)sulfonyl)-3,4-dihydro-2H-pyrido[4,3-b][1,4]thiazin-8-yl)benzonitrile]
73 | 1.3 | N#Cc1ccc(-c2cncc3c2SCCN3S(=O)(=O)C2CN(C(=O)c3cccc(F)c3)C2)cc1 [S69, 4-(4-((1-(3-Fluorobenzoyl)azetidin-3-yl)sulfonyl)-3,4-dihydro-2H-pyrido[4,3-b][1,4]thiazin-8-yl)benzonitrile]
49 | 1.4 | N#Cc1ccc(C(=O)N2CC(S(=O)(=O)N3CCSc4c(-c5ccc(C#N)cc5)cncc43)C2)cc1 [S70, 4-(4-((1-(4-Cyanobenzoyl)azetidin-3-yl)sulfonyl)-3,4-dihydro-2H-pyrido[4,3-b][1,4]thiazin-8-yl)benzonitrile]
349 | 14 | N#Cc1ccc(-c2cncc3c2SCCN3S(=O)(=O)C2CN(C(=O)c3cccc(C#N)c3)C2)cc1 [S71, 3-(3-((8-(4-Cyanophenyl)-2,3-dihydro-4H-pyrido[4,3-b][1,4]thiazin-4-yl)sulfonyl)azetidine-1-carbonyl)benzonitrile]
23 | 2.1 | COc1ccc(C(=O)N2CC(S(=O)(=O)N3CCSc4c(-c5ccc(C#N)cc5)cncc43)C2)cc1 [S72, 4-(4-((1-(4-Methoxybenzoyl)azetidin-3-yl)sulfonyl)-3,4-dihydro-2H-pyrido[4,3-b][1,4]thiazin-8-yl)benzonitrile]
18 | 0.3 | COc1cccc(C(=O)N2CC(S(=O)(=O)N3CCSc4c(-c5ccc(C#N)cc5)cncc43)C2)c1 [S73, 4-(4-((1-(3-Methoxybenzoyl)azetidin-3-yl)sulfonyl)-3,4-dihydro-2H-pyrido[4,3-b][1,4]thiazin-8-yl)benzonitrile]
24 | 0.8 | N#Cc1ccc(-c2cncc3c2SCCN3S(=O)(=O)C2CN(S(=O)(=O)c3ccc(C#N)cc3)C2)cc1 [S76, 4-((3-((8-(4-Cyanophenyl)-2,3-dihydro-4H-pyrido[4,3-b][1,4]thiazin-4-yl)sulfonyl)azetidin-1-yl)sulfonyl)benzonitrile]

More lines, now with the values behind:

SMILES | IC50 (human CYP11B1) [nM] | IC50 (human CYP11B2) [nM]
O=S(=O)(c1ccc(O)nc1)N1CCSc2c(-c3cc4cc(Cl)ccc4o3)cncc21 [S54, 5-((8-(5-Chlorobenzofuran-2-yl)-2,3-dihydro-4H-pyrido[4,3-b][1,4]thiazin-4-yl)sulfonyl) pyridin-2-ol] | 549 | 16
Cn1cc(S(=O)(=O)N2CCSc3c(-c4cc5cc(Cl)ccc5o4)cncc32)cn1 [S55, 8-(5-Chlorobenzofuran-2-yl)-4-((1-methyl-1H-pyrazol-4-yl)sulfonyl)-3,4-dihydro-2H-pyrido[4,3-b][1,4]thiazine] | 10.6 | 0.2
Cn1ccc(S(=O)(=O)N2CCSc3c(-c4cc5cc(Cl)ccc5o4)cncc32)n1 [S56, 8-(5-Chlorobenzofuran-2-yl)-4-((1-methyl-1H-pyrazol-3-yl)sulfonyl)-3,4-dihydro-2H-pyrido[4,3-b][1,4]thiazine] | 41 | 0.5
CC(=O)Nc1nc(C)c(S(=O)(=O)N2CCSc3c(-c4cc5cc(Cl)ccc5o4)cncc32)s1 [S57, N-(5-((8-(5-Chlorobenzofuran-2-yl)-2,3-dihydro-4H-pyrido[4,3-b][1,4]thiazin-4-yl)sulfonyl)-4-methylthiazol-2-yl)acetamide] | 66 | 3.9
CC(=O)N1CCc2cc(S(=O)(=O)N3CCSc4c(-c5cc6cc(Cl)ccc6o5)cncc43)ccc21 [S58, 1-(5-((8-(5-Chlorobenzofuran-2-yl)-2,3-dihydro-4H-pyrido[4,3-b][1,4]thiazin-4-yl)sulfonyl)indolin-1-yl)ethan-1-one] | 27 | 2
O=C1COc2ccc(S(=O)(=O)N3CCSc4c(-c5cc6cc(Cl)ccc6o5)cncc43)cc2N1 [S59, 6-((8-(5-Chlorobenzofuran-2-yl)-2,3-dihydro-4H-pyrido[4,3-b][1,4]thiazin-4-yl)sulfonyl)-2H-benzo[b][1,4]oxazin-3 (4H)-one] | 48 | 0.5
O=S(=O)(c1ccc(Cl)s1)N1CCSc2c(-c3cc4cc(Cl)ccc4o3)cncc21 [S60, 8-(5-Chlorobenzofuran-2-yl)-4-((5-chlorothiophen-2-yl)sulfonyl)-3,4-dihydro-2H-pyrido-[4,3-b][1,4]thiazine] | 54 | 0.7
O=S(=O)(C1CCNCC1)N1CCSc2c(-c3cc4cc(Cl)ccc4o3)cncc21 [S61, 8-(5-Chlorobenzofuran-2-yl)-4-(piperidin-4-ylsulfonyl)-3,4-dihydro-2H-pyrido[4,3-b][1, 4]thiazine] | 688 | 21.7
O=S(=O)(C1CNC1)N1CCSc2c(-c3cc4cc(Cl)ccc4o3)cncc21 [S62, 4-(Azetidin-3-ylsulfonyl)-8-(5-chlorobenzofuran-2-yl)-3,4-dihydro-2H-pyrido[4,3-b][1,4]thiazine] | 516 | 7.2
N#CN1CCC(S(=O)(=O)N2CCSc3c(-c4cc5cc(Cl)ccc5o4)cncc32)CC1 [S63, 4-((8-(5-Chlorobenzofuran-2-yl)-2,3-dihydro-4H-pyrido[4,3-b][1,4]thiazin-4-yl)sulfonyl) piperidine-1-carbonitrile] | 792 | 10
N#CN1CC(S(=O)(=O)N2CCSc3c(-c4cc5cc(Cl)ccc5o4)cncc32)C1 [S64, 3-((8-(5-Chlorobenzofuran-2-yl)-2,3-dihydro-4H-pyrido[4,3-b][1,4]thiazin-4-yl)sulfonyl) azetidine-1-carbonitrile] | 755 | 4.5
N#CC12CC(S(=O)(=O)N3CCSc4c(-c5cc6cc(Cl)ccc6o5)cncc43)(C1)C2 [S65, 3-((8-(5-Chlorobenzofuran-2-yl)-2,3-dihydro-4H-pyrido[4,3-b][1,4]thiazin-4-yl)sulfonyl)bicyclo[1.1.1]pentane-1-carbonitrile] | 783 | 5
O=S(=O)(C1CC2(COC2)C1)N1CCSc2c(-c3cc4cc(Cl)ccc4o3)cncc21 [S66, 4-((2-Oxaspiro[3.3]heptan-6-yl)sulfonyl)-8-(5-chlorobenzofuran-2-yl)-3,4-dihydro-2H-pyrido[4,3-b][1,4]thiazine] | 587 | 3.8
N#CN1CC2(CC(S(=O)(=O)N3CCSc4c(-c5cc6cc(Cl)ccc6o5)cncc43)C2)C1 [S67, 6-((8-(5-chlorobenzofuran-2-yl)-2,3-dihydro-4H-pyrido[4,3-b][1,4]thiazin-4-yl)sulfonyl)-2-azaspiro[3.3]heptane-2-carbonitrile] | 603 | 3.2
N#Cc1ccc(-c2cncc3c2SCCN3S(=O)(=O)C2CN(S(=O)(=O)c3ccc(F)cc3)C2)cc1 [S74, 4-(4-((1-((4-Fluorophenyl)sulfonyl)azetidin-3-yl)sulfonyl)-3,4-dihydro-2H-pyrido[4,3-b][1,4]thiazin-8-yl)benzonitrile] | 22 | 1.7
N#Cc1ccc(-c2cncc3c2SCCN3S(=O)(=O)C2CN(S(=O)(=O)c3cccc(F)c3)C2)cc1 [S75, 4-(4-((1-((3-Fluorophenyl)sulfonyl)azetidin-3-yl)sulfonyl)-3,4-dihydro-2H-pyrido[4,3-b][1,4]thiazin-8-yl)benzonitrile] | 12 | 0.7
